We go through three molecules from US6177426A, “Morpholino-N-ethyl ester prodrugs of indole sPLA2 inhibitors” (Eli Lilly and Company, priority 2000, dated 2001).

A short description of data set [1]: Rat plasma pharmacokinetics study, oral bioavailability. It counts as in vivo, Rat (Fischer 344). Particulars: compared to other ester prodrugs. How it is done: The bioavailability of the compound of the invention, ((3-(2-Amino-1,2-dioxoethyl)-1-((1,1'-biphenyl)-3-ylmethyl)-2-methyl-1H-indol-4-yl)oxy)acetic acid morpholino-N-ethyl ester, was determined using a Rat Study Protocol Plasma
The purpose of this assay was to evaluate and compare the oral delivery for selected sPLA2 inhibitors.
The amount of sPLA2 inhibitor was corrected for free acid equivalents.
Suspension of sPLA2 inhibitor in 10% Acacia, prepared just prior to dose administration
Dose: 10 mg/kg (of the parent acid)
Blood samples (0.8 ml) were obtained at the following times: 0.5, 1, 2, 4, 8 and 24 hours (2 rats/timepoint)
Plasma was assayed by HPLC to measure concentrations of the different sPLA2 inhibitors (measured as free acids). Cmax (maximal plasma concentrations), and AUC values were determined from the mean plasma concentration-time profiles.

In data set [2] the target is recombinant human secreted phospholipase A2. The note with it: data from U.S. Pat. No. 5,654,326, cited from earlier work.
For data set [3] the target is unchanged. Particulars: guinea pig lung tissue; sPLA2 10 ug/ml; data from U.S. Pat. No. 5,654,326; read-out: Tissue test secreted PLA2 Apparent KB; cited from earlier work.

For the molecule `Cc1c(C(=O)C(N)=O)c2c(OCC(=O)OCCN3CCOCC3)cccc2n1Cc1cccc(-c2ccccc2)c1` [Compound of formula (I), ((3-(2-amino-1,2-dioxoethyl)-1-((1,1'-biphenyl)-3-ylmethyl)-2-methyl-1H-indol-4-yl)oxy)acetic acid morpholino-N-ethyl ester], the “oral bioavailability compared to other esters (in words)” value in data set [1] (listed as morpholino-N-ethyl ester) is “unexpectedly more bioavailable than other esters”.

As for `Cc1c(C(=O)C(N)=O)c2c(OCC(=O)OCCN3CCOCC3)cccc2n1Cc1cccc(-c2ccccc2)c1` [formula (I)], the “oral bioavailability compared to other esters (in words)” value in data set [1] is given as “highly bioavailable upon oral administration compared to other common ester type prodrugs”.

Regarding `Cc1c(C(=O)C(N)=O)c2c(OCC(=O)O)cccc2n1Cc1cccc(-c2ccccc2)c1` [formula (II)], the IC50 (as a rule, the point on the concentration scale where inhibition reaches its midpoint) in data set [2] (chromogenic assay, 3-4 tests, read-out: Inhibition of human secreted PLA2 IC50 ± mean deviation (3-4 tests)) is 4.33 ± 2.31 nM. Besides, in data set [2] (conclusion of Assay 1), the “inhibiting sPLA2 (conclusion in words)” value is “highly active in inhibiting sPLA2”. Besides, in data set [3], the Kb was 57 ± 11 nM.
